Two compounds from patent US20230002327A1, “SMALL-MOLECULE REGULATOR OF TLR8” (TSINGHUA UNIVERSITY, priority 2019, published 2023) can be followed below.

The test system of assay [1] is peripheral blood mononuclear cells of patients suffering from rheumatoid arthritis. Description: TNF-α in PBMC of rheumatoid arthritis patients. The assay is classed as cell-based, human. The note with it: PBMC derived from rheumatoid arthritis patients (FIG. 9). As for the experimental part:
Approximately 8 mL of blood was collected from untreated rheumatoid arthritis patients.
Peripheral blood mononuclear cells (PBMCs) were isolated from the whole blood derived from 6 rheumatoid arthritis patients using the lymphocyte separation medium, and the cells were seeded in a 96-well round-bottom plate at a density of 1×10^6 cells/mL immediately after the isolation (cultured in RPMI 1640 (0.25 mL/well)).
Afterwards, cells were treated with 0, 10, 20, 40 and 80 μM Compound 24, Compound 10 was used as a negative control, and cells were placed in a cell incubator (37° C., 5% CO2) for incubation.
After 24 hours, the resultant was centrifuged at 4,000 rpm/minute for 10 minutes, and then the supernatant was collected, frozen to −80° C. and used for the determination of TNF-α. Quantification was conducted using a human TNF ELISA Kit.

The test system of assay [2] is TLR1/2, TLR2/6, TLR3, TLR4 and TLR5 signaling pathways. In words: ELISA of TNF-α in TLR1/2, TLR2/6, TLR3, TLR4 or TLR5 signaling pathways in human PBMC. The assay is classed as cell-based. The note with it: human peripheral blood mononuclear cells (FIG. 4). (In general: ELISA stands for enzyme-linked immunosorbent assay.)
The test system of assay [3] is R848-induced signaling pathway in THP-1 cells. Description: ELISA of inflammatory factors in R848-treated THP-1 cells. The assay is classed as cell-based, human. The protocol: THP-1 cells treated with 50 ng/mL of PMA were suspended in RPMI medium (containing 10% fetal bovine serum, penicillin (100 U/mL), streptomycin ([…]) and 0.05 mM 2-mercaptoethanol), seeded in a 12-well plate at a density of 1×10^6 cells/well and 1 mL/well, and incubated in a cell incubator (37° C., 5% CO2).
(§1) After 48 hours, suspending cells would adhere onto the surface of the 12-well plate, non-adhered cells and the medium were aspirated, and cells were washed with sterile […] buffer (3×1 mL). RPMI medium was added (1 mL/well), and R848 (1 μg/mL) and various concentrations of Compound 24 or Compound 10 (as a negative control) were further added to treat cells. Or, the same amount of peripheral blood mononuclear cells derived from healthy human were used instead of THP-1 cells for subsequent experiments.
(§2) After 24 hours, the supernatant of the medium was collected and stored in a freezer at −80° C. Cells were washed with PBS (3×1 mL), the 12-well plate was placed on ice, and then 400 μL of lysis buffer (containing protease inhibitor) was added to each well, during which the cells were pipetted every five minutes. After 20 minutes, the mixture was transferred to the corresponding 1.5-mL tube and centrifuged at 13.2K rpm and 4° C. for 20 minutes. 350 μL of the supernatant was collected into a new centrifuge tube and frozen at −80° C.
(§3) Cytokines interleukin-1β(IL-1β), interleukin-6 (IL-6) and tumor necrosis factor (TNF-α) were quantified by enzyme-linked immunosorbent assay (ELISA) according to the instructions of the kit provided by the manufacturer.

Assay [4] relates to R848-induced signaling pathway in human peripheral blood mononuclear cells. In words: ELISA of TNF-α in R848-treated human peripheral blood mononuclear cells. Particulars: human peripheral blood mononuclear cells (FIG. 8). In kind it is cell-based. The protocol:
as §1, §2, §3

Assay [5] relates to hTLR1/2, TLR2/6, TLR3, TLR4, TLR5, TLR7, TLR9. Description: Specificity test in HEK-Blue TLR cell lines: other TLRs. Particulars: at a concentration of 100 μM (FIG. 11). In kind it is cell-based, human. The protocol:
The selectivity of compounds for receptors in TLR family was tested in HEK-Blue cells overexpressing various TLRX (x=1 to 9) respectively. The steps of this test method were the same as those mentioned above in “Activity Test of Compounds”, except that the ligands corresponding to different TLRs were used to activate the downstream signaling in the corresponding cells. Among these, ploy (I:C) (20 μg/mL), LPS (40 ng/mL), Pam3CSK4 (100 ng/mL), Pam2CSK4 (100 ng/mL), flagellin (200 ng/mL), R848 (1 μg/mL) and ODN2006 (0.5 μM) were used to selectively activate HEK-Blue hTLR3-, hTLR4-, hTLR1/2-, hTLR2/6-, hTLR5-, hTLR7- and hTLR9-overexpressing cells, respectively.

For the compound `CSc1nnc(CCCO)n1-c1cc(C)c(C)c(C)c1` [Compound 24, 3-(5-(methylthio)-4-(3,4,5-trimethylphenyl)-4H-1,2,4-triazole-3-yl)propan-1-ol], the “inhibitory effect on inflammatory factor TNF-α” value in assay [1], in assay [3] (concentration-dependent (FIG. 5)) and in assay [4] was “significant inhibitory effect” each time. The “inhibitory effect on TNF-α in TLR1/2, TLR2/6, TLR3, TLR4 and TLR5 signaling pathways” value in assay [2] is “no inhibitory effect”. For the same compound, the “inhibitory effect on inflammatory factor IL-6” value in assay [3] (concentration-dependent (FIG. 6)) is “significant inhibitory effect”. Besides, in assay [3] (concentration-dependent (FIG. 7)), the “inhibitory effect on inflammatory factor IL-1β” value is reported as “significant inhibitory effect”.
Turning to `CCOCc1nc(I)c(-c2ccccc2)n1CC(C)(C)O` [Compound 53, 1-[2-(ethoxymethyl)-4-iodo-5-phenyl-1H-imidazole-1-yl]-2-methylpropan-2-ol], the “influence on other TLR signaling pathways” value in assay [5] was “no influence”.
